Reference: article PMC6337497 (International Journal of Molecular Sciences, 2018)

Assays:
[1] = test system: PC3 cells; test: Anchorage-independent colony formation assay, PC3; assay type: cell-based, Human; details: PC3, 5 µM
Protocol: For anchorage-independent colony formation assay, 0.6% low melt agarose gel with 10% FBS in appropriate complete cell growth medium was prepared and added to the wells of a twelve-well culture dish as a base agar. […] PC3 and DU145 cells were allowed to grow at 37 °C for three weeks (PC3) or five weeks (DU145). The effect of the drugs on anchorage-independent growth was determined by colony growth. Colonies were stained with 0.07% crystal violet and formed colonies were imaged. The numbers of colonies with radius ≥ 7 pixels were counted with automated colony counter (OpenCFU 3.9.0) and average number of colonies was plotted against drug concentrations. Colony numbers were normalized as a percentage of colonies formed following DMSO treatment.

[2] = test system: PC3 cells; test: RT-qPCR gene transcription, PC3; assay type: cell-based, Human; details: PC3, 48 h at GI50 dose
Protocol: Data are presented as relative transcript levels, normalized with RPL21 housekeeping gene, with DMSO levels arbitrarily set at 1.
RNA was extracted from cells using RNeasy kit (Qiagen, Venlo, The Netherlands) and reversed transcribed with a Moloney murine leukemia virus reverse transcriptase (Promega, Madison, WI, USA). Quantitative real-time PCRs were performed using SsoAdvanced Universal SYBR Green Supermix (Bio-Rad, Hercules, CA, USA) on a Bio-Rad CFX Connect™ real-time PCR detection system. Primer sequences are available upon request. The housekeeping gene Rpl21 was used as a loading control. The relative fold change enrichments of real-time PCR samples were calculated with the formula 2^−(ΔΔCt), where −(ΔΔCt) = −[(Ct target − Ct Rpl21)treated − (Ct target − Ct Rpl21)DMSO].

[3] = test system: PC3 cells; test: Anchorage-dependent colony formation assay, PC3; assay type: cell-based, Human
Protocol: (§1) For anchorage-dependent colony formation assay, 1000 PC3 or 500 DU145 cells were plated in 6-well plates. […] After 7–10 days, the plates were washed, fixed and stained with 0.5% crystal violet solution in 20% Methanol. […] Colony numbers were normalized as a percentage of colonies formed following DMSO treatment.

[4] = test system: DU145 cells; test: Cell migration (wound) assay, DU145; assay type: cell-based, Human; details: DU145, GI50 dose, 16 h
Protocol: (§2) 4 × 10^5 prostate cancer cells were plated in a 12-well plate. Approximately 24 h later, when the cells were 100% confluent, the monolayer was scratched using a 200 µL pipette tip. […] Three biological replicates were performed. Three random pictures were taken for each treated well per experiment and the areas of the wounds measured using ImageJ software. The percentage of wound recovery was then calculated using the formula: (final area-initial area)/initial area × 100%.

[5] = test system: PC3 cells; test: Western blot of total cellular lysates, PC3; assay type: cell-based, Human; details: PC3, 48 h at GI50 dose
Protocol: Actin was used as loading control. Whole-cell protein extracts were prepared by resuspending cells into 1X SDS sample buffer (25 mM Tris-HCl pH 6.8, 1.5 mM EDTA, 20% glycerol, 2% SDS, 5% β-mercaptoethanol, 0.0025% Bromophenol blue). Equivalent amounts of cellular extracts were resolved by SDS-PAGE, electrotransferred to PVDF membrane (GE Healthcare Italia, Milan, Italy) and immunoblotted with the following primary antibodies: anti-phospo-H2AX (sc-101696), anti-p53 (DO1) (sc-126), anti-actin ([MUT]) (sc-1616) and anti-PARP (sc-8007) antibody from Santa Cruz Biotecnology, Inc, Dallas, TX, USA.; phospho-specific AKT antibody S473 (#9018) and T308 (#9275), Akt antibody (#9272 and #2967), phospho-specific ERK1/2 antibody T202/Y204 (#4370), ERK1/2 antibody (#4669), phospho-specific p38 MAPK antibody T180/Y182 (#9211), and p38 antibody (#9212) were purchased from Cell Signaling Technologies, Danvers, MA, USA. Membranes were blotted and scanned with Bio-Rad ChemiDocTM Touch Imaging System (Bio-Rad, Hercules, CA, USA), using chemiluminescent detection reagents from Cyanagen, Bologna, Italy (Westar ηC and Supernova HRP substrates for Western blotting).

[6] = Antioxidant activity (DPPH assay); details: [DPPH] = 60 µM, methanol, 120 min; read-out: IC50, DPPH radical scavenging
Protocol: The antioxidant activity of the compounds was evaluated in terms of hydrogen donating or radical scavenging ability, using the stable DPPH radical (1,1-diphenyl-2-picrylhydrazyl radical). A variable amount (15, 30, 45, 75, 105, and 150 µL) of a methanol solution (1.2 mM) of each compound was placed in a cuvette, and 3 mL of a 60 µM methanol solution of DPPH was added. Absorbance measurements were initiated immediately. The decrease in absorbance at 517 nm was monitored every minute up to 5′, then every 5′ up to 30′ and every 30′ until reaction reaches completion and absorbance stabilizes attaining a plateau after 120′. Methanol was used to zero the spectrophotometer. The absorbance of the DPPH radical without K3F compound, i.e., the control, was measured daily, and concentration was calculated applying Equation (2) (2) [DPPH^·]=A−1.006/10970
The percentage of inhibition (%In) of the DPPH radical by each sample was calculated according to the formula (3) %In=A0−At/A0×100 where A0 represents the absorbance of the control (DPPH radical) at time 0, while At refers to the absorbance of the mixture DPPH/antioxidant at time t (120 min). Values of absorbance were corrected taking into account volume dilution and all determinations were performed in triplicate.

[7] = test system: PC3 cells; test: Cell migration (wound) assay, PC3; assay type: cell-based, Human; details: PC3, GI50 dose, 40 h
Protocol: as §2

[8] = test system: DU145 cells; test: Cell cycle analysis (propidium iodide), DU145; assay type: cell-based, Human; details: DU145, 48 h at GI50 dose
Protocol: Cells were harvested after 48 h drug treatments and DNA distribution analysis of cells stained with propidium iodide solution (propidium iodide 25 µg/mL, Na-Citrate 3.4 mM, NaCl 9.65 mM, NP-40 0.03%) was performed by an Epics cytofluorimeter (Beckman Coulter Srl, Milan, Italy).

[9] = pH-metric titration, acid-base behavior (UV-vis, HypSpec); assay type: physicochemical; details: pH 7
Protocol: pH-metric titrations were performed in order to assess K3F acidity and predict the most abundant species in physiological condition. […] Overall protonation constants (βHL) were calculated from spectrophotometric data and optimized by means of HypSpec software (Supplementary Table S1). K3F23, K3F24 and K3F33 behaved as weak monoprotic acids, with a pKa value close to 8–8.50 associated to the keto-enol moiety. As for the other two ligands, namely K3F21 and K3F31, the acid-base equilibria were more complex in view of the polyprotic nature of the compounds, and three logβLH values were calculated. Species distribution curves (Supplementary Figure S2) provided reliable prediction of neutral and charged forms as function of pH, and consequently helped to envisage cell penetration and distribution in physiological conditions. […] As for K3F21 and K3F31, they behaved as less weak acids, in fact at pH 7 58% of K3F21 and 65% of K3F31 were found in the mono-dissociated negatively charged form (H2L^−), these percentages increased up to 74% and 86% respectively at pH 7.4. […] This outcome could be attributed to the stabilizing effect of the intramolecular hydrogen bond between the methoxyl and hydroxyl groups on the aromatic ring in the indissociated form of K3F21, which shifts the equilibrium in favor of the neutral species (H3L).
UV-vis spectrophotometric measurements were performed using Jasco V-570 spectrophotometer at 25.0 ± 0.1 °C in the 200–600 nm spectral range employing 1 cm quartz cells. Owing to the poor water solubility of the compounds, a methanol mother solution (5 × 10^−3 M) was diluted in water in order to give 50 µM solutions used for pH-metric titrations. The pH value was varied by adding small amounts of concentrated NaOH or HCl, 25 points in the pH range 3–10. A constant ionic strength of 0.1 M (NaNO3) was maintained in all the experiments. Each titration was performed at least three times. The overall protonation constants (logβLH) were evaluated from spectrophotometric data using the software HypSpec.

[10] = test system: DU145 cells; test: Anchorage-dependent colony formation assay, DU145; assay type: cell-based, Human; details: DU145, 10 days, different doses
Protocol: as §1

What does the source list for COc1cc(/C=C/C(=O)C(CCCN2C(=O)c3ccccc3C2=O)C(=O)/C=C/c2ccc(O)c(OC)c2)ccc1O [K3F21]?
decrease in colony formation, anchorage-independent [1]: up to 95%; Bcl-2 / Bcl-xl transcription [2]: Bcl-2, but not Bcl-xl, was weakly repressed; Noxa transcription [2]: induced; Puma transcription [2]: increased exclusively following K3F21 administration; transcription of CDK inhibitors p21 and p27 [2]: increased; transcription of Cdc2, CyclinB1, CyclinB2, and CyclinD1 cell cycle genes ([2]; compared to curcumin and control cells): general decrease, though not always significant; anchorage-dependent colony formation ([3]; PC3, 5 µM): quite completely abolished; anchorage-dependent colony growth ([3]; PC3, 7 days, different doses): clearly inhibited cell growth when administered at lower concentrations than curcumin; cell migration (wound recovery) [4]: exerted inhibitory effects on the migratory capacity; ERK1/2 phosphorylation [5]: increased; phospho-p38 expression [5]: inhibited; phosphorylation of AKT in Ser473 and Thr308 [5]: inhibited; γH2AX expression (marker of DNA damage) [5]: triggered DNA damage; IC50 [6]: 24 µM; cell migration (wound recovery) [7]: exerted inhibitory effects on the migratory capacity; effect on cell cycle distribution (in words) [8]: both arrested the G2/M progression and induced cell death; mono-dissociated negatively charged form (H2L−) [9]: 58%; anchorage-dependent colony growth [10]: clearly inhibited cell growth when administered at lower concentrations than curcumin
